Results published in patent US9540418B2, “Polypeptide specifically binding to rare earth nanoparticles and use thereof” (University of Science and Technology of China, priority 2012, dated 2017).

How the values were obtained:
[1] = test system: LC3 type II in mice liver; test: Western blotting of LC3 in mice livers after tail vein injection; assay type: in vivo; conditions: 300 μg (15 mg/kg) tail vein, 24 hr
Protocol: Western blotting is performed as follows: After an incubation of 24 h, the cells are collected and lysed with lysis buffer (purchased from Beyotime Biotechnology, China). The lysate is boiled in boiling water for 10 min, subjected to 15% SDS-PAGE, and then transferred to nylon membrane (purchased from Amersham Inc.) by a wet transfer. In the Western blotting, Anti-LC3 (Light Chain 3 Protein Antibody, purchased from Novus Inc., Catalog #: NB 100-2220) is used as primary antibody; GAPDH (purchased from Millipore Inc.) is used as internal reference; and Horseradish peroxidase (HRP) conjugated goat anti-rabbit IgG (H+L) (Goat Anti-Rabbit IgG (H+L), HRP Conjugate) (purchased from Promega Inc.) is used as secondary antibody.
Balb/c mice (purchased from SLAC Laboratory Animal (Shanghai, China), 6 weeks old, and weighed 20 g when used) were bred in a sterile housing, and then 300 μg (dosage: 15 mg/kg) UCN, UCN+PEG (containing 10 mg PEG), UCN+RE-1, UCP, UCP+RE-1, or UCP+AP-1 was injected through tail vein. An equal volume of normal saline was injected as a control. After 24 hr, the livers of the mice were removed and subjected to western blotting assay.

[2] = Sedimentation / suspension time-dynamics curve of UCP (UV 500 nm); assay type: physicochemical; conditions: standing for 120 min; UCP with or without RE-1 coating
Protocol: 3 mg of UCN was mixed with 1.5 mg of RE-1 or its analogues RE-2, RE-3, or RE-5 as well as PEG, and the binding between them was performed according to a binding method. The excess and unbound RE-1 was washed off. The resultant precipitate was resuspended in 3 mL water, sonicated for 1 min, and then placed into a UV detection cell (X72053, Alpha Laboratories Ltd, UK). Observation was made using a UV spectrophotometer (DU-640, Beckman, USA) at an absorption wavelength of 500 nm for 120 min to obtain a time-dynamics curve.
The process described above was repeated except that 3 mg UCP and 500 μg RE-1 or its analogues RE-2, RE-3, RE-4, RE-5, RE-6, RE-7, RE-8, RE-9, or RE-10 and AP-1 were used. A time-dynamics curve was obtained.

HeLa-LC3 cells = test: RE-1 blocking of nanophosphor-induced autophagy (LC3 aggregates and vacuoles); assay type: cell-based; conditions: nanophosphors coated with RE-1, 24 hr
Protocol: The rare-earth upconversion nanophosphors (UCN, UCP, UCN-S) coated with RE-1 were prepared as follows: 50 μg, 10 μg, and 350 μg RE-1 was mixed with 100 μg UCN, UCP, or UCN-S, respectively, incubated at 37° C. for 2 hr, centrifuged at 12000 rpm, and then washed with water for 3 times to remove the excess and unbound RE-1 peptides. The resultant precipitate was resuspended in 100 μL water.
HeLa-LC3 cells were inoculated into a 96-well cell culturing plate at a density of about 1-2×10^4 cells/well, and cultured overnight for further use. At first, the medium was replaced with fresh DMEM medium, to which UCN, UCP, or UCN-S with or without the coating of RE-1 peptides was added at different concentrations (0 μg/mL, 10 μg/mL, 100 μg/mL, 1000 μg/mL). After culturing for 24 hr, the fluorescence generated by GFP reporter gene was observed, imaged, and measured under a fluorescence microscope.
The ability to induce cell autophagy was estimated by determining the numbers of LC3 aggregates and vacuoles.

HeLa cells = test: Adherence of UCN coated with RE-1 or RE-1-RGD to HeLa cells; assay type: cell-based; conditions: 37° C., 2 hr, versus uncoated
Protocol: HeLa cells were cultured on a coverslip (22 mm×22 mm), which was then placed into a 6-well plate with the cells facing upward or downward, and the coverslip was supported by a sterilized glass cube (2 mm×2 mm×2 mm). Then, 4 mL of DMEM medium containing the rare-earth upconversion nanophosphors coated with RE-1 or RE-1-RGD or without any coating was slowly poured into the 6-well plate, such that the cells were fully immersed in the medium, and the coverslip was just located at the middle of the height of the liquid. The cells were placed into a cell incubator at 37° C. for 2 hr, and then washed with PBS 3 times. The UCNs adhered to the surfaces of the cells were observed under a fluorescence microscope (Olympus IX71, Olympus, Japan) equipped with a 980-nm infrared laser (MDL-980 nm 1 W, Changchun New Industries Optoelectronics Tech. Co., Ltd, China).

ACTARSPWICG [RE-1, RE-0 with terminal amino acids A and G added]
effect of RE-1 coating of UCN and UCP on LC3 type II in mice liver [1]: significantly prevented the increase of LC3 type II
suspension / sedimentation of UCP in water [2]: still in suspension
inhibition of cell autophagy induced by UCN, UCP, and UCN-S (HeLa-LC3 cells): significantly inhibited
number of coated upconversion nanophosphors adhered to the surface of the cells (HeLa cells): greatly reduced
